Reference: patent US8435549B2, “Halogen alkoxy spirocyclic tetramic and tetronic acid derivatives” (Bayer Cropscience AG, priority 2007, dated 2013)

What was measured:
[1] = test system: green peach aphid (Myzus persicae); experiment: Enhancement of activity by ammonium/phosphonium salts, Myzus persicae test; assay type: in vivo; conditions: Myzus persicae on bell pepper, active compound 4 ppm
Protocol: To produce a suitable preparation of active compound, 1 part by weight of active compound is mixed with the stated amounts of solvent and emulsifier, and the concentrate is diluted with water to the desired concentration. For application with ammonium or phosphonium salts, these are added to the spray liquor in a concentration of 1000 ppm.
Bell pepper plants (Capsicum annuum) which are heavily infested by the green peach aphid (Myzus persicae) are treated by spraying to runoff point with the active compound preparation of the desired concentration. After the desired period of time, the kill in % is determined. 100% means that all animals have been killed; 0% means that none of the animals have been killed.

[2] = Determination of the log P values (LC/MS, HCOOH method); assay type: physicochemical; conditions: for log P: HPLC reversed-phase C18, HCOOH method; for chromatographic logP: reversed-phase C18 HPLC column, acidic range (pH 3.4)
Protocol: Determination of the Log P Values (LC/MS, HCOOH Method):
The log P values given in the tables were determined in accordance with EEC Directive 79/831 Annex V.A8 by HPLC (High Performance Liquid Chromatography) using a reversed-phase column (C 18). Temperature: 55° C.
Mobile phases for determination in the acidic range (pH 3.4):
Mobile phase A: acetonitrile+1 ml formic acid/liter. Mobile phase B: water+0.9 ml formic acid/liter. Gradient: from 10% mobile phase A/90% mobile phase B to 95% mobile phase A/5% mobile phase B over 4.25 min. Calibration was carried out using unbranched alkan-2-ones (having 3 to 16 carbon atoms) with known log P values (determination of the log P values by the retention times using linear interpolation between two successive alkanones). The lambda max values were determined in the maxima of the chromatographic signals using the UV spectra from 200 nm to 400 nm.

[3] = test system: cotton aphid (Aphis gossypii); experiment: Enhancement of activity by ammonium/phosphonium salts in combination with penetrants, Aphis gossypii test; assay type: in vivo
Protocol: To produce a suitable preparation of active compound, 1 part by weight of active compound is mixed with the stated amounts of solvent and emulsifier, and the concentrate is diluted with emulsifier-containing water to the desired concentration. For application with ammonium or phosphonium salts and penetrants (rapeseed oil methyl esters 500 EW) these are added to the spray liquor in each case in a concentration of 1000 ppm.
Cotton plants (Gossypium hirsutum) which are heavily infested by the cotton aphid (Aphis gossypii) are treated by spraying to runoff point with the active compound preparation of the desired concentration.
After the desired period of time, the kill in % is determined. 100% means that all the aphids have been killed; 0% means that none of the aphids have been killed.

[4] = test system: crop plants; experiment: Use of safeners: plant compatibility of test substances in crop plants; assay type: in vivo
Protocol: • Seeds of monocotyledonous and dicotyledonous weed and crop plants are placed in sandy loam in wood fiber pots, covered with soil and cultivated in a greenhouse under good growth conditions. 2 to 3 weeks after sowing, the test plants are treated at the one-leaf stage. The test compounds, formulated as wettable powders (WP) are then, with a water application rate of 600 l/ha (converted), with 0.2% of wetting agent added, sprayed at various dosages onto the green parts of the plants. After the test plants have been kept in the greenhouse under optimum growth conditions for about 3 weeks, the activity of the preparations is rated visually in comparison to untreated controls (herbicidal activity in percent: 100% activity=the plants have died, 0% activity=like control plants). • In addition to the compounds mentioned above, the following compounds show a post-emergence action of ≧80% against Echinocloa crus-galli, Lolium multiflorum and Setaria viridis at 80 g/ha: I-1-a-2, I-1-a-4, I-1-a-5, I-1-a-7, I-1-a-9, I-1-a-12, I-1-a-13, I-1-a-14, I-1-b-3.
Use of Safeners: • If it is additionally to be tested as to whether safeners can improve the plant compatibility of test substances in the case of crop plants, the following options are used for applying the safeners: • seeds of the crop plants are, before sowing, dressed with the safener substance (the amount of safener stated in percent, based on the weight of the seed) • before application of the test substances, the crop plants are sprayed with the safener at a certain application rate per hectare (usually 1 day before the application of the test substances) • the safener is applied together with the test substance as a tank mix (the amount of safener stated in g/ha or as a ratio, based on the herbicide).
• Application of the safener 1 day prior to the herbicide

[5] = α isomer of the α + β mixture, 55° C.
[6] = β isomer of the α + β mixture, 55° C.
[7] = compounds of formula (I-2-b), single isomer as labelled
[8] = single isomer isolated by preparative HPLC (formula I-2-a)

SMILES: Cc1cc(C)c(C2=C(O)C3(CCC(OCC(F)(F)F)CC3)NC2=O)c(C)c1 (mixture of isomers) [Example I-1-a-5]
- Kill rate/% after 6 days ([1]; +AS (1000 ppm)): 99%
- Kill rate/% after 6 days ([1]; without AS): 5%

SMILES: Cc1ccc(C)c(C2=C(O)C3(CCC(OCC(F)(F)F)CC3)OC2=O)c1 (mixture of isomers) [Example I-2-a-2]
- log P [2, 5]: α 3.10
- log P [2, 6]: β 2.95

SMILES: Cc1cc(C)c(C2=C(O)C3(CCC(OCC(F)(F)F)CC3)OC2=O)c(C)c1 (mixture of isomers) [Example I-2-a-3]
- log P [2, 5]: α 3.31
- log P [2, 6]: β 3.18

SMILES: Cc1cc(C)c(C2=C(O)C3(CCC(OCC(F)(F)F)CC3)OC2=O)cc1C (mixture of isomers) [Example I-2-a-4]
- log P [2, 5]: α 3.34
- log P [2, 6]: β 3.20

SMILES: CCc1cc(C)cc(C)c1C1=C(O)C2(CCC(OCC(F)(F)F)CC2)OC1=O (mixture of isomers) [Example I-2-a-5]
- log P [2, 5]: α 3.54
- log P [2, 6]: β 3.41

SMILES: Cc1ccc(-c2ccc(Cl)cc2)c(C)c1C1=C(O)C2(CCC(OCC(F)(F)F)CC2)OC1=O (mixture of isomers) [Example I-2-a-6]
- log P [2, 5]: α 4.29
- log P [2, 6]: β 4.13

SMILES: Cc1cc(Cl)cc(C)c1C1=C(O)C2(CCC(OCC(F)(F)F)CC2)OC1=O (mixture of isomers) [Example I-2-a-8]
- log P [2, 5]: 3.39
- log P [2, 6]: 3.25

SMILES: COc1cc(C)cc(C)c1C1=C(O)C2(CCC(OCC(F)(F)F)CC2)OC1=O (mixture of isomers) [Example I-2-a-11]
- log P [2, 5]: α 3.07
- log P [2, 6]: β 2.94

SMILES: CCc1cc(-c2ccc(Cl)cc2)cc(C)c1C1=C(O)C2(CCC(OCC(F)(F)F)CC2)OC1=O (mixture of isomers) [Example I-2-a-12]
- log P [2, 5]: α 4.51
- log P [2, 6]: β 4.36

SMILES: Cc1ccc(-c2ccc(F)cc2)c(C)c1C1=C(O)C2(CCC(OCC(F)(F)F)CC2)NC1=O (single isomer, unassigned) [Example I-1-a-3]
- Kill rate/% after 6 days ([3]; 4 ppm, +AS (1000 ppm)): 0%
- Kill rate/% after 6 days ([3]; 4 ppm, +RME (1000 ppm)): 5%
- Kill rate/% after 6 days ([3]; 4 ppm, +RME + AS (1000 ppm each)): 25%
- Kill rate/% after 6 days ([3]; 4 ppm, no additive): 0%
- Kill rate/% after 6 days ([3]; 20 ppm, +AS (1000 ppm)): 5%
- Kill rate/% after 6 days ([3]; 20 ppm, +RME (1000 ppm)): 10%
- Kill rate/% after 6 days ([3]; 20 ppm, +RME + AS (1000 ppm each)): 90%
- Kill rate/% after 6 days ([3]; 20 ppm, no additive): 25%

SMILES: CCc1cc(C)cc(Br)c1C1=C(O)C2(CCC(OCC(F)(F)F)CC2)NC1=O (single isomer, unassigned) [Example I-1-a-7]
- 10 days after application Summer wheat observed (%) ([4]; 12.5 g a.i./ha): 40%
- 28 days after application Summer wheat observed (%) ([4]; 12.5 g a.i./ha): 10%
- 10 days after application Summer wheat observed (%) ([4]; 25 g a.i./ha): 50%
- 28 days after application Summer wheat observed (%) ([4]; 25 g a.i./ha): 20%
- 10 days after application Summer wheat observed (%) ([4]; 50 g a.i./ha): 60%
- 28 days after application Summer wheat observed (%) ([4]; 50 g a.i./ha): 30%
- 10 days after application Summer wheat observed (%) ([4]; 100 g a.i./ha): 60%
- 28 days after application Summer wheat observed (%) ([4]; 100 g a.i./ha): 40%

SMILES: Cc1ccc(C)c(C2=C(OC(=O)C(C)C)C3(CCC(OCC(F)(F)F)CC3)OC2=O)c1 (single isomer, unassigned) [Example I-2-b-5]
- log P [2, 7]: 4.88

SMILES: Cc1ccc(C)c(C2=C(OC(=O)C(C)C)C3(CCC(OCC(F)(F)F)CC3)OC2=O)c1 (single isomer, unassigned) [Example I-2-b-6]
- log P [2, 7]: 4.62

SMILES: Cc1cc(Cl)cc(C)c1C1=C(OC(=O)C(C)C)C2(CCC(OCC(F)(F)F)CC2)OC1=O (single isomer, unassigned) [Example I-2-b-15]
- log P [2, 7]: 5.25

SMILES: Cc1cc(Cl)cc(C)c1C1=C(OC(=O)C(C)C)C2(CCC(OCC(F)(F)F)CC2)OC1=O (single isomer, unassigned) [Example I-2-b-16]
- log P [2, 7]: 4.97

SMILES: CCc1cc(-c2ccc(Cl)cc2)cc(C)c1C1=C(OC(=O)C(C)C)C2(CCC(OCC(F)(F)F)CC2)OC1=O (single isomer, unassigned) [I-2-b-17]
- log P [2, 7]: 6.33

SMILES: CCc1cc(-c2ccc(Cl)cc2)cc(C)c1C1=C(OC(=O)C(C)C)C2(CCC(OCC(F)(F)F)CC2)OC1=O (single isomer, unassigned) [I-2-b-18]
- log P [2, 7]: 6.02

SMILES: COc1cc(C)cc(C)c1C1=C(OC(=O)C(C)C)C2(CCC(OCC(F)(F)F)CC2)OC1=O (single isomer, unassigned) [I-2-b-19]
- log P [2, 7]: 4.72

SMILES: COc1cc(C)cc(C)c1C1=C(OC(=O)C(C)C)C2(CCC(OCC(F)(F)F)CC2)OC1=O (single isomer, unassigned) [I-2-b-20]
- log P [2, 7]: 4.48

SMILES: CCc1cc(C)cc(CC)c1C1=C(O)C2(CCC(OCC(F)(F)F)CC2)OC1=O (stereo not shown) [Example I-2-a-1]
- chromatographic logP ([2]; pH 3.4, α isomer of the isomer mixture, HPLC): 3.78
- chromatographic logP ([2]; pH 3.4, β isomer of the isomer mixture, HPLC): 3.64

SMILES: Cc1cc(C)c(C2=C(O)C3(CCC(OCC(F)(F)F)CC3)OC2=O)c(C)c1 (stereo not shown) [Example I-2-a-9]
- log P [2, 8]: 3.29

SMILES: Cc1cc(C)c(C2=C(O)C3(CCC(OCC(F)(F)F)CC3)OC2=O)c(C)c1 (stereo not shown) [Example I-2-a-10]
- log P [2, 8]: 3.16

SMILES: CCc1cc(C)cc(CC)c1C1=C(OC(=O)C(C)C)[C@]2(CC[C@H](OCC(F)(F)F)CC2)OC1=O [Example I-2-b-1]
- chromatographic logP ([2]; pH 3.4, HPLC): 5.69

SMILES: CCc1cc(C)cc(C)c1C1=C(OC(=O)C(C)C)[C@]2(CC[C@@H](OCC(F)(F)F)CC2)OC1=O [Example I-2-b-2]
- chromatographic logP ([2]; pH 3.4, HPLC): 5.4

SMILES: CCc1cc(C)cc(C)c1C1=C(OC(=O)C(C)C)[C@]2(CC[C@H](OCC(F)(F)F)CC2)OC1=O [Example I-2-b-3]
- log P [2, 7]: 5.44

SMILES: CCc1cc(C)cc(C)c1C1=C(OC(=O)C(C)C)C2(CCC(OCC(F)(F)F)CC2)OC1=O (stereo not shown) [Example I-2-b-4]
- log P [2, 7]: 5.15

SMILES: Cc1cc(C)c(C2=C(OC(=O)C(C)C)[C@]3(CC[C@H](OCC(F)(F)F)CC3)OC2=O)cc1C [Example I-2-b-7]
- log P [2, 7]: 5.14

SMILES: Cc1cc(C)c(C2=C(OC(=O)C(C)C)C3(CCC(OCC(F)(F)F)CC3)OC2=O)cc1C (stereo not shown) [Example I-2-b-8]
- log P [2, 7]: 4.87

SMILES: Cc1cc(C)c(C2=C(OC(=O)C(C)C)[C@]3(CC[C@H](OCC(F)(F)F)CC3)OC2=O)c(C)c1 [Example I-2-b-9]
- log P [2, 7]: 5.14

SMILES: Cc1cc(C)c(C2=C(OC(=O)C(C)C)C3(CCC(OCC(F)(F)F)CC3)OC2=O)c(C)c1 (stereo not shown) [Example I-2-b-10]
- log P [2, 7]: 4.88

SMILES: Cc1ccc(-c2ccc(Cl)cc2)c(C)c1C1=C(OC(=O)C(C)C)[C@]2(CC[C@H](OCC(F)(F)F)CC2)OC1=O [Example I-2-b-11]
- log P [2, 7]: 6.11

SMILES: Cc1ccc(-c2ccc(Cl)cc2)c(C)c1C1=C(OC(=O)C(C)C)C2(CCC(OCC(F)(F)F)CC2)OC1=O (stereo not shown) [Example I-2-b-12]
- log P [2, 7]: 5.83

SMILES: Cc1ccc(-c2ccc(Cl)cc2)cc1C1=C(OC(=O)C(C)C)[C@]2(CC[C@H](OCC(F)(F)F)CC2)OC1=O [Example I-2-b-13]
- log P [2, 7]: 5.84

SMILES: Cc1ccc(-c2ccc(Cl)cc2)cc1C1=C(OC(=O)C(C)C)C2(CCC(OCC(F)(F)F)CC2)OC1=O (stereo not shown) [Example I-2-b-14]
- log P [2, 7]: 5.55
